Data taken from patent US12234211B2, “Cycloolefin substituted heteroaromatic compounds and their use” (HUTCHISON MEDIPHARMA LIMITED, priority 2017, dated 2025).

Assays:
IDH2-R140Q = target: T1, IDH2-R140Q (Homo sapiens, UniProt P48735, R140Q); assay: Fluorescent determination of IDH2-R140Q cell activity (2-HG in U87MGR140Q cells); format: cell-based; settings: 72 hours incubation, read-out: IC50 (2-HG inhibition)
T1 construct: expressed in transfected cells
T1 sequence (P48735 40-452 R140Q): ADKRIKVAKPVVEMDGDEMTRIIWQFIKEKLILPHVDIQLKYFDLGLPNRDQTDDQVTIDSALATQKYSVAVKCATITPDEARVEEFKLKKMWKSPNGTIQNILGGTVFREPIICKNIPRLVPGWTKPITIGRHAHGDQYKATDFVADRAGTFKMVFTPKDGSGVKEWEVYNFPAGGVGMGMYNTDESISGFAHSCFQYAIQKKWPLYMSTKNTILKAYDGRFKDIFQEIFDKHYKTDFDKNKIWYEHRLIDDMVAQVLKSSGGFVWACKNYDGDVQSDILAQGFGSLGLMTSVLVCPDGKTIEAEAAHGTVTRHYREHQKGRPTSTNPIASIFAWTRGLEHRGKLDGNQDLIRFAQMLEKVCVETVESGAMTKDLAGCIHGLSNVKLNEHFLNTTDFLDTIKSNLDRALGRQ
Procedure: Enzyme reaction solution: 1 mM nicotinamide adenine dinucleotide (NAD), 0.6 ng/μL D-2-hydroxyglutarate dehydrogenase (D2HGDH), 0.8 U/mL lipoamidase dehydrogenase (Diaphorase) and 60 μM Resazurin in 40 mM Tris.HCl pH 8.8 assay buffer.
Standard curve stock solution: The standard of 2-HG sodium salt was serially diluted in serum-free MEM medium to make a standard curve stock solution.
100 μL of U87MGR140Q cells were seeded at a density of 6×10^4/mL per well in a 96-well plate a.
From each well of 96-well plate a, 50 μL of the culture supernatant was transferred to the corresponding well of 96-well plate b; at the same time, 50 μL of standard curve stocking solution was added to other wells of 96-well plate b. Then 10 μl of 360 mM hydrochloric acid was added to all the wells. After shaking and mixing, the plate was placed on ice for 10 minutes, and then 10 μl of 420 mM Tris-base was added. After shaking and mixing, the plate was placed on ice for additional 5 minutes. Then the plate was centrifuged at 2500 rpm for 10 minutes.
After centrifuging, from each well of 96-well plate b, 20 μL of the supernatant was transferred to 96-well plate c. An additional 80 μL of the enzyme reaction solution was added to each well and incubated at 25° C. for 90 minutes.
A standard curve of the fluorescence value vs. the corresponding 2-HG concentration was made, and the 2-HG concentration corresponding to each concentration point of the compound was calculated, then the inhibition ratio was calculated, and the data was analyzed using XLfit5 (ID Business Solutions Limited) software to obtain the IC50 value.
The inhibition ratio was calculated as follows: Inhibition Ratio (IH %)=(1-2-HG concentration of test compound treated cells/2-HG concentration of control cells)×100%.

IDH1-R132H = target: T2, IDH1-R132H (Homo sapiens, UniProt O75874, R132H); assay: Fluorescent determination of IDH1-R132H cell activity (2-HG in U87MGR132H cells); format: cell-based; settings: 2-HG inhibition in U87MGR132H cells transfected with IDH1-R132H mutant plasmid
T2 construct: expressed in transfected cells; host or cells: U87MG cells (U87MGR132H)
T2 sequence (O75874 whole entry R132H): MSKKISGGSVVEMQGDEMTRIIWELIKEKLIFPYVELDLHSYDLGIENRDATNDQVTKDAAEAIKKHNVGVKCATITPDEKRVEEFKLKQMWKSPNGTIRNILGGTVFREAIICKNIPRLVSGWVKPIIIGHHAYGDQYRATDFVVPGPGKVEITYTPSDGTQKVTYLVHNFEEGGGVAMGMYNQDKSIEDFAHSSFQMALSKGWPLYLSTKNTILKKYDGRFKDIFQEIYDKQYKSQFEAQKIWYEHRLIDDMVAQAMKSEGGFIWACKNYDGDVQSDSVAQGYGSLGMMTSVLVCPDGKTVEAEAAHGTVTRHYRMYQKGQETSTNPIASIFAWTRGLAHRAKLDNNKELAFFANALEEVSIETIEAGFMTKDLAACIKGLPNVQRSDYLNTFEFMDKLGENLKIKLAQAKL

| Structure (SMILES) | IC50 (IDH2-R140Q) [nM] | IC50 (IDH1-R132H) [nM] |
| --- | --- | --- |
| C[C@@H](Nc1nc(NC2CCCC2)nc(C2=CC(O)CCC2)n1)C(F)(F)F (mixture of isomers) [Compound 130] | 67 | 733 |
| CC(C)CNc1nc(N[C@H](C)C(F)(F)F)nc(C2=CC(O)CCC2)n1 (mixture of isomers) [Compound 134] | 100 | 2470 |
| C[C@@H](Nc1nc(NC2CCCC2(F)F)nc(C2=C(F)C(O)CCC2)n1)C(F)(F)F (mixture of isomers) [Compound 166] | 180 | 1350 |
| C[C@@H](Nc1nc(NCC2CCC2(F)F)nc(C2=C(F)C(O)CCC2)n1)C(F)(F)F (mixture of isomers) [Compound 171] | 268 | 1570 |
| CC(Nc1nc(N[C@H](C)C(F)(F)F)nc(C2=C(F)C(O)CCC2)n1)C(F)F (mixture of isomers) [Compound 174] | 96 | 343 |
| CC(C)Nc1nc(Nc2ccc3nscc3c2)nc(C2=C(F)C(O)CCC2)n1 (racemic) [Compound 229] | 383 | > 10000 |
| C[C@@H](Nc1nc(N[C@H](C)C(F)(F)F)nc(C2=C(F)C(=O)C(F)CC2)n1)C(F)(F)F (mixture of isomers) [Compound 242, 3-(4,6-Bis(((R)-1,1,1-trifluoropropan-2-yl)amino)-1,3,5-triazin-2-yl)-2,6-difluoro-cyclohex-2-en-1-one] | 802 | 3520 |
| CC(C)Nc1nc(N[C@H](C)C(F)(F)F)nc(C2=C(F)C(O)C(F)CC2)n1 (single isomer, unassigned) [Compound 96] | 675 | 2700 |
| C[C@@H](Nc1nc(N[C@H](C)C(F)(F)F)nc(C2=C(F)C(O)C(F)(F)CC2)n1)C(F)(F)F (single isomer, unassigned) [Compound 198] | 845 | 1890 |
| C[C@@H](Nc1nc(NCC2CC2)nc(C2=C(F)C(O)C(F)CC2)n1)C(F)(F)F (single isomer, unassigned) [Compound 226] | 361 | 5120 |
| C[C@@H](Nc1nc(NC2CC(F)(F)C2)nc(C2=C(F)C(O)C(F)CC2)n1)C(F)(F)F (single isomer, unassigned) [Compound 228] | 417 | 705 |

Other lines, results leading:

| IC50 (IDH2-R140Q) [nM] | IC50 (IDH1-R132H) [nM] | Structure (SMILES) |
| --- | --- | --- |
| 80 | 610 | C[C@H](Nc1nc(NC2CC(F)(F)C2)nc(C2=C(F)C(O)CCC2)n1)C(F)(F)F (mixture of isomers) [Compound 32] |
| 145 | > 10000 | CC(C)(C)ONc1nc(Nc2ccc3sncc3c2)nc(C2=C(F)C(O)CCC2)n1 (racemic) [Compound 34] |
| 296 | 1340 | C[C@@H](Nc1nc(NC2CCCCC2)nc(C2=CC(O)CCC2)n1)C(F)(F)F (mixture of isomers) [Compound 136] |
| 300 | 2010 | C[C@@H](Nc1nc(N[C@H](C)C(F)(F)F)nc(C2=C(F)C(O)CCC2)n1)c1ccccc1 (mixture of isomers) [Compound 152, 2-Fluoro-3-(4-(((R)-1-phenylethyl)amino)-6-(((R)-1,1,1-trifluoropropan-2-yl)amino)-1,3,5-triazin-2-yl)cyclohex-2-en-1-ol] |
| 291 | 495 | CC(Nc1nc(N[C@H](C)C(F)(F)F)nc(C2=C(F)C(O)CCC2)n1)C(C)(F)F (mixture of isomers) [Compound 175] |
| 632 | > 10000 | CC(C)Nc1nc(Nc2ccc3ccnn3c2)nc(C2=C(F)C(O)CCC2)n1 (racemic) [Compound 200] |
| 487 | > 10000 | OC1C(F)=C(c2nc(Nc3ccnc(C(F)(F)F)c3)nc(N3CC(F)(F)C3)n2)CCC1(F)F (single isomer, unassigned) [Compound 221] |
| 36 | 917 | C[C@@H](Nc1nc(NCC2CC2)nc(C2=C(F)C(O)C(F)CC2)n1)C(F)(F)F (single isomer, unassigned) [Compound 225] |
| 658 | > 10000 | CCCNc1nc(N[C@H](C)C(F)(F)F)nc(C2=C(F)C(O)[C@H](F)CC2)n1 (single isomer, unassigned) [Compound 230] |
